Measured values: US5981517A, “Androstene derivatives” (priority 1997, dated 1999)
Values joined by “and” are separate entries in the source; they are usually repeats but may differ in a detail not shown here. Equal entries are not always repeated. Where two headings read alike, the source gives them in different places.

Assays:
[1] = test system: rats; details: oral; cited from earlier work
[2] = molecular target: T1, rat lung glucocorticoid receptor (Rattus norvegicus, UniProt P06536); details: previously found, cited from earlier work
T1 construct: Immediately after resection of the lungs, the tissue was frozen in ice; The cytosol was prepared; from tissue; host or cells: lung cytosol of adrenalectomized male Sprague-Dawley rats
T1 sequence (P06536 1-795): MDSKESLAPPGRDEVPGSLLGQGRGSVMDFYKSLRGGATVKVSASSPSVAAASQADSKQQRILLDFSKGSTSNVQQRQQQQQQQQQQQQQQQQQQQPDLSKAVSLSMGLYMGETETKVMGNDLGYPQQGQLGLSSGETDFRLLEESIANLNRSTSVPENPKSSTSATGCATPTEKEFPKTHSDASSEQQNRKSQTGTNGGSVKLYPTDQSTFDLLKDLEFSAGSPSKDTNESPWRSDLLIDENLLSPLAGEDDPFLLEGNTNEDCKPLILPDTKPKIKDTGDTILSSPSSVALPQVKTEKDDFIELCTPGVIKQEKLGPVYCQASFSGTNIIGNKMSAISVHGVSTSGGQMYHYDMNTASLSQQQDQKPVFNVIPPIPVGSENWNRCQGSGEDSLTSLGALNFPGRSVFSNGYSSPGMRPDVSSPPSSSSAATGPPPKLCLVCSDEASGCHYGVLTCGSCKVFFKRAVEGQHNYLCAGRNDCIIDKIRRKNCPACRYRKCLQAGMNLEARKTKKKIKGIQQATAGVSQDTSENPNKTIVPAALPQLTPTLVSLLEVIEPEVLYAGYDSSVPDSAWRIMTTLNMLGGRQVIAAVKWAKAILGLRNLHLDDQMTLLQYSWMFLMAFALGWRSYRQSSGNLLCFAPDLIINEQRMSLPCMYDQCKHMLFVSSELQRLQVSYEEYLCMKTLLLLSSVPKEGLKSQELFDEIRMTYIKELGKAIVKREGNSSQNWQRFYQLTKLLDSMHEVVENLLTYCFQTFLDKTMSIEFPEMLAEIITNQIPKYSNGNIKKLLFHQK

[3] = test system: forearm of a human volunteer; assay: Human vasoconstriction test; type: in vivo; parameters: key: 0 = normal skin, 4 = very intense pallor; details: 10 mM
Description: Test compounds (10 mM) were dissolved in ethanol/propylene glycol (9/1) solution, and 50 μL of the mixtures were applied to circular patches, 8 mm in diameter. After ethanol evaporation, the patches were applied to the forearm of a human volunteer, and covered with a water impervious film for 3 hours. The intensity of vasoconstriction was judged 1, 8, 17 and 24 hours after the patches were removed.
The grading scale for the vasoconstriction activity was as follows: 0, normal skin; 1, slight pallor of indistinct outline; 2, pallor with at least two corners outlined; 3, even pallor with a clear outline of the application sites; 4, very intense pallor.

[4] = test system: forearms of a human volunteer; assay: Further human vasoconstriction testing, Method 1; type: in vivo
Description: The mixtures, in 50 μL amounts, were applied to circular patches (8 mm diameter). After evaporation of ethanol, the patches were applied to the forearms of a human volunteer, and covered with a water impervious film for 3 hr. The intensity of vasoconstriction (scale 0-4) was judged at various time intervals after removal of the patches. The grading scale was as follows: 0, normal skin; 1, slight pallor of indistinct outline; 2, pallor with at least two corners outlined; 3, even pallor with a clear outline of the application sites; 4, very intense pallor. The skin tests (2-4 tests on each compound) were performed on the same person.

Structure (SMILES): CC(=O)O [Acetic acid]
- LD50 [1]: 3530 mg/kg

Structure (SMILES): CCOC(=O)O[C@]1(C(=O)OCCl)CC[C@H]2[C@@H]3CCC4=CC(=O)C=C[C@]4(C)[C@H]3[C@@H](O)C[C@@]21C [Loteprednol etabonate, chloromethyl 17α-ethoxycarbonyloxy-11β-hydroxyandrosta-1,4-dien-3-one-17β-carboxylate, reference compound]
- RBA ([2]; with Δ1-cortienic acid): 420
- RBA ([2]; without Δ1-cortienic acid): 152
- Vasoconstriction activity ([3]; 1 hour after patch removal): 2
- Vasoconstriction activity ([3]; 8 hours after patch removal): 3 and 2
- Vasoconstriction activity ([3]; 17 hours after patch removal): 2
- Vasoconstriction activity ([3]; 24 hours after patch removal): 2 and 1
- Vasoconstriction activity ([4]; 3 Hours, 0.01 mM): 0
- Vasoconstriction activity ([4]; 3 Hours, 0.05 mM): 0
- Vasoconstriction activity ([4]; 3 Hours, 0.1 mM): 1
- Vasoconstriction activity ([4]; 3 Hours, 0.5 mM): 2
- Vasoconstriction activity ([4]; 3 Hours, 1 mM): 3
- Vasoconstriction activity ([4]; 3 Hours, 5 mM): 3
- Vasoconstriction activity ([4]; 3 Hours, 10 mM): 4
- Vasoconstriction activity ([4]; 20 Hours, 0.01 mM): 0
- Vasoconstriction activity ([4]; 20 Hours, 0.05 mM): 0
- Vasoconstriction activity ([4]; 20 Hours, 0.1 mM): 0
- Vasoconstriction activity ([4]; 20 Hours, 0.5 mM): 0
- Vasoconstriction activity ([4]; 20 Hours, 1 mM): 0
- Vasoconstriction activity ([4]; 20 Hours, 5 mM): 1
- Vasoconstriction activity ([4]; 20 Hours, 10 mM): 2

Structure (SMILES): CCC(=O)O [propionic acid]
- LD50 [1]: 4290 mg/kg
